Reference: patent publication US20230256058A1 (MAPI PHARMA LTD., priority 2020, published 2023)

Legend:
[1] = cited from earlier work
[2] = Plasma concentrations of liraglutide formulations in db/db mice; type: in vivo; conditions: 200 μg/kg SC daily
Experimental: Treatment Groups: 1. Naïve control normal mice (n=6) • 2. Placebo (vehicle) control db/db mice (n=8) • 3.
• Ad lib fed blood glucose levels were recorded every 3rd day throughout the study period i.e. on Day-1, Day-3, Day-6, Day-9, Day-12, Day-15, Day-18, Day-21, Day-24, and Day-27. […] (before treatment) and 3 hr. post treatment. • On Day-1 and Day-28, blood samples were collected for the measurement of HbA1C levels. • Body weight and feed intake were recorded every day throughout treatment period.

[3] = in vivo; cited from earlier work

Compound: CCCCCCCCCCCCCCCC(=O)N[C@@H](CCC(=O)NCCCC[C@H](NC(=O)[C@H](C)NC(=O)[C@H](C)NC(=O)[C@H](CCC(N)=O)NC(=O)CNC(=O)[C@H](CCC(=O)O)NC(=O)[C@H](CC(C)C)NC(=O)[C@H](Cc1ccc(O)cc1)NC(=O)[C@H](CO)NC(=O)[C@H](CO)NC(=O)[C@@H](NC(=O)[C@H](CC(=O)O)NC(=O)[C@H](CO)NC(=O)[C@@H](NC(=O)[C@H](Cc1ccccc1)NC(=O)[C@@H](NC(=O)CNC(=O)[C@H](CCC(=O)O)NC(=O)[C@H](C)NC(=O)[C@@H](N)Cc1cnc[nH]1)[C@@H](C)O)[C@@H](C)O)C(C)C)C(=O)N[C@@H](CCC(=O)O)C(=O)N[C@@H](Cc1ccccc1)C(=O)N[C@H](C(=O)N[C@@H](C)C(=O)N[C@@H](Cc1c[nH]c2ccccc12)C(=O)N[C@@H](CC(C)C)C(=O)N[C@H](C(=O)N[C@@H](CCCNC(=N)N)C(=O)NCC(=O)N[C@@H](CCCNC(=N)N)C(=O)NCC(=O)O)C(C)C)[C@@H](C)CC)C(=O)O [L-API, liraglutide]
- Steady state therapeutic plasma concentration ([1]; VICTOZA Prescribing Information): about 128 ng/mL
- Human range for clinically effective concentrations ([1]; human, Ingwersen S. H. et al. J. Clin. Pharmacol. 2012): 5 to 45 nmol/L
- Plasma levels (in words) ([2]; post 3 hr. of injection): increase in plasma levels
- Plasma levels (in words) ([2]; post 24 hr. of treatment): detectable plasma levels

Compound: GLP-1
- Pharmacokinetic half-life [3]: 2 to 5 min
